# In ChEMBL document CHEMBL3297661, “1-Substituted-5-[(3,5-dinitrobenzyl)sulfanyl]-1H-tetrazoles and their isosteric analogs: A new class of selective antitubercular agents active against drug-susceptible and multidrug-resistant mycobacteria” (Eur J Med Chem, 2014):
# pIC50: −log10 of the molar value.
# Tests used:
# [1] = tested on: Mycobacterium tuberculosis; assay: Antimycobacterial activity against Mycobacterium tuberculosis H37Rv; format: functional
# Candida albicans [2] = assay: Antifungal activity against Candida albicans ATCC 44859 after 24 hrs by broth microdilution method; format: functional; conditions: ATCC 44859, 24 h
# HepG2 = assay: Cytotoxicity against human HepG2 cells assessed as reduction in cell viability after 48 hrs by MTT assay; format: cell-based; conditions: HepG2, 48 h
# Staphylococcus aureus [3] = assay: Antibacterial activity against Staphylococcus aureus ATCC 6538 after 24 hrs by broth microdilution method; format: functional; conditions: ATCC 6538, 24 h
# [4] = Cytotoxicity against MDCK2 cells assessed as reduction in cell viability after 48 hrs by MTT assay; format: cell-based; conditions: Canis lupus familiaris, MDCK-II
# Nakaseomyces glabratus [5] = assay: Antifungal activity against Candida glabrata 20/I after 24 hrs by broth microdilution method; format: functional
# Pichia kudriavzevii [6] = assay: Antifungal activity against Candida krusei E28 after 48 hrs by broth microdilution method; format: functional; conditions: E28, 48 h
# [7] = tested on: Staphylococcus epidermidis; assay: Antibacterial activity against Staphylococcus epidermidis H 6966/08 after 24 hrs by broth microdilution method; format: functional; conditions: H 6966/08, 24 h
# [8] = Cytotoxicity against human HeLa cells assessed as cell viability at 30 uM after 48 hrs by MTT assay; format: cell-based; conditions: read-out: Activity
# [9] = Cytotoxicity against human HepG2 cells assessed as cell viability at 30 uM after 48 hrs by MTT assay; format: cell-based; conditions: read-out: Activity
# Escherichia coli [10] = assay: Antibacterial activity against Escherichia coli ATCC 8739 after 48 hrs by broth microdilution method; format: functional; conditions: ATCC 8739, ATCC 8739, 48 h
# Escherichia coli [11] = assay: Antibacterial activity against Escherichia coli ATCC 8739 after 24 hrs by broth microdilution method; format: functional; conditions: ATCC 8739, ATCC 8739, 24 h
# Klebsiella pneumoniae [12] = assay: Antibacterial activity against Klebsiella pneumoniae D 11750/08 after 48 hrs by broth microdilution method; format: functional; conditions: D 11750/08, 48 h
# Klebsiella pneumoniae [13] = assay: Antibacterial activity against extended spectrum beta-lactamase producing Klebsiella pneumoniae J 14368/08 after 48 hrs by broth microdilution method; format: functional; conditions: J 14368/08, 48 h
# Candida tropicalis [14] = assay: Antifungal activity against Candida tropicalis 156 after 24 hrs by broth microdilution method; format: functional; conditions: Candida tropicalis, 156, 24 h
# Enterococcus faecalis [15] = assay: Antibacterial activity against Enterococcus faecalis J 14365/08 after 24 hrs by broth microdilution method; format: functional; conditions: J 14365/08, 24 h
# Pseudomonas aeruginosa [16] = assay: Antibacterial activity against Pseudomonas aeruginosa ATCC 9027 after 24 hrs by broth microdilution method; format: functional; conditions: ATCC 9027, 24 h
# Aspergillus fumigatus [17] = assay: Antifungal activity against Aspergillus fumigatus 231 after 24 hrs by broth microdilution method; format: functional, organism-based; conditions: Aspergillus fumigatus, 231, 24 h
# Candida tropicalis [18] = assay: Antifungal activity against Candida tropicalis 156 after 48 hrs by broth microdilution method; format: functional; conditions: Candida tropicalis, 156, 48 h
# Mycobacterium avium [19] = assay: Antimycobacterial activity against Mycobacterium avium CNCTC My 330/88 after 21 days by micromethod; format: functional; conditions: CNCTC My 330/88, 504 h
# Pichia kudriavzevii [20] = assay: Antifungal activity against Candida krusei E28 after 24 hrs by broth microdilution method; format: functional; conditions: E28, 24 h
# Staphylococcus aureus [21] = assay: Antibacterial activity against methicillin-resistant Staphylococcus aureus H 5996/08 after 24 hrs by broth microdilution method; format: functional; conditions: H 5996/08, 24 h
# [22] = tested on: Mycobacterium tuberculosis; assay: Antimycobacterial activity against Mycobacterium tuberculosis CNCTC My 331/88 after 21 days by micromethod; format: functional; conditions: CNCTC My 331/88, 504 h
# Nakaseomyces glabratus [23] = assay: Antifungal activity against Candida glabrata 20/I after 48 hrs by broth microdilution method; format: functional
# Aspergillus fumigatus [24] = assay: Antifungal activity against Aspergillus fumigatus 231 after 48 hrs by broth microdilution method; format: functional, organism-based; conditions: Aspergillus fumigatus, 231, 48 h
# [25] = tested on: Trichophyton mentagrophytes; assay: Antifungal activity against Trichophyton mentagrophytes 445 after 72 hrs by broth microdilution method; format: functional, organism-based; conditions: Trichophyton mentagrophytes, 445, 72 h
# Mycobacterium kansasii [26] = assay: Antimycobacterial activity against Mycobacterium kansasii CNCTC My 235/80 after 14 days by micromethod; format: functional; conditions: CNCTC My 235/80, 336 h
# Mycobacterium kansasii [27] = assay: Antimycobacterial activity against Mycobacterium kansasii 6509/96 after 7 days by micromethod; format: functional; conditions: 6509/96, 168 h
# Staphylococcus aureus [28] = assay: Antibacterial activity against Staphylococcus aureus ATCC 6538 after 48 hrs by broth microdilution method; format: functional; conditions: ATCC 6538, 48 h
# Lichtheimia corymbifera [29] = assay: Antifungal activity against Absidia corymbifera 272 after 48 hrs by broth microdilution method; format: functional, organism-based; conditions: Lichtheimia corymbifera, 272, 48 h
# Klebsiella pneumoniae [30] = assay: Antibacterial activity against Klebsiella pneumoniae D 11750/08 after 24 hrs by broth microdilution method; format: functional; conditions: D 11750/08, 24 h
# [31] = tested on: Staphylococcus epidermidis; assay: Antibacterial activity against Staphylococcus epidermidis H 6966/08 after 48 hrs by broth microdilution method; format: functional; conditions: H 6966/08, 48 h
# Staphylococcus aureus [32] = assay: Antibacterial activity against methicillin-resistant Staphylococcus aureus H 5996/08 after 48 hrs by broth microdilution method; format: functional; conditions: H 5996/08, 48 h
# [33] = Cytotoxicity against MDCK2 cells assessed as cell viability at 30 uM after 48 hrs by MTT assay; format: cell-based, Canis lupus familiaris, MDCK-II; conditions: dog, read-out: Activity
# HeLa = assay: Cytotoxicity against human HeLa cells assessed as reduction in cell viability after 48 hrs by MTT assay; format: cell-based
# Mycobacterium kansasii [34] = assay: Antimycobacterial activity against Mycobacterium kansasii CNCTC My 235/80 after 7 days by micromethod; format: functional; conditions: CNCTC My 235/80, 168 h
# Mycobacterium kansasii [35] = assay: Antimycobacterial activity against Mycobacterium kansasii 6509/96 after 14 days by micromethod; format: functional; conditions: 6509/96, 336 h
# [36] = tested on: Mycobacterium tuberculosis; assay: Antimycobacterial activity against Mycobacterium tuberculosis CNCTC My 331/88 after 14 days by micromethod; format: functional; conditions: CNCTC My 331/88, 336 h
# Enterococcus faecalis [37] = assay: Antibacterial activity against Enterococcus faecalis J 14365/08 after 48 hrs by broth microdilution method; format: functional; conditions: J 14365/08, 48 h
# Trichosporon asahii [38] = assay: Antifungal activity against Trichosporon asahii 1188 after 48 hrs by broth microdilution method; format: functional; conditions: Trichosporon asahii, 1188, 48 h
# Candida albicans [39] = assay: Antifungal activity against Candida albicans ATCC 44859 after 48 hrs by broth microdilution method; format: functional; conditions: ATCC 44859, 48 h
# Pseudomonas aeruginosa [40] = assay: Antibacterial activity against Pseudomonas aeruginosa ATCC 9027 after 48 hrs by broth microdilution method; format: functional; conditions: ATCC 9027, 48 h
# Klebsiella pneumoniae [41] = assay: Antibacterial activity against extended spectrum beta-lactamase producing Klebsiella pneumoniae J 14368/08 after 24 hrs by broth microdilution method; format: functional; conditions: J 14368/08, 24 h
# Mycobacterium kansasii [42] = assay: Antimycobacterial activity against Mycobacterium kansasii 6509/96 after 21 days by micromethod; format: functional; conditions: 6509/96, 504 h
# [43] = Cytotoxicity against human HuH7 cells assessed as reduction in cell viability after 48 hrs by MTT assay; format: cell-based; conditions: Huh-7, 48 h
# Lichtheimia corymbifera [44] = assay: Antifungal activity against Absidia corymbifera 272 after 24 hrs by broth microdilution method; format: functional, organism-based; conditions: Lichtheimia corymbifera, 272, 24 h
# Mycobacterium kansasii [45] = assay: Antimycobacterial activity against Mycobacterium kansasii CNCTC My 235/80 after 21 days by micromethod; format: functional; conditions: CNCTC My 235/80, 504 h
# Mycobacterium avium [46] = assay: Antimycobacterial activity against Mycobacterium avium CNCTC My 330/88 after 14 days by micromethod; format: functional; conditions: CNCTC My 330/88, 336 h
# [47] = tested on: Trichophyton mentagrophytes; assay: Antifungal activity against Trichophyton mentagrophytes 445 after 120 hrs by broth microdilution method; format: functional, organism-based; conditions: Trichophyton mentagrophytes, 445, 120 h
# [48] = Cytotoxicity against human HuH7 cells assessed as cell viability at 30 uM after 48 hrs by MTT assay; format: cell-based, Huh-7; conditions: read-out: Activity
# Trichosporon asahii [49] = assay: Antifungal activity against Trichosporon asahii 1188 after 24 hrs by broth microdilution method; format: functional; conditions: Trichosporon asahii, 1188, 24 h
structure (smiles),measurement,setting,value
C[C@]1(COc2ccc(N3CCC(Oc4ccc(OC(F)(F)F)cc4)CC3)cc2)Cn2cc([N+](=O)[O-])nc2O1 [DELAMANID],MIC,[1],0.02 µM
O=[N+]([O-])c1cn2c(n1)OC[C@@H](OCc1ccc(OC(F)(F)F)cc1)C2 [PRETOMANID],MIC,[1],0.11 µM
C[C@H]1COC2(CCN(c3nc(=O)c4cc(C(F)(F)F)cc([N+](=O)[O-])c4s3)CC2)O1 [BTZ-043],MIC,[1],0.0023 µM
O=[N+]([O-])c1cc(CSc2nnnn2Cc2ccccc2)cc([N+](=O)[O-])c1,IC80,Candida albicans [2],> 500 µM
same,pIC50,HepG2,< 4.52
same,IC95,Staphylococcus aureus [3],> 500 µM
same,pIC50,[4],< 4.52
same,IC80,Nakaseomyces glabratus [5],> 500 µM
same,IC80,Pichia kudriavzevii [6],> 500 µM
same,IC95,[7],> 500 µM
same,"viability at 48 h, 30 µM",[8],91%
same,"viability at 48 h, 30 µM",[9],94%
same,IC95,Escherichia coli [10],> 500 µM
same,IC95,Escherichia coli [11],> 500 µM
same,IC95,Klebsiella pneumoniae [12],> 500 µM
same,IC95,Klebsiella pneumoniae [13],> 500 µM
same,IC80,Candida tropicalis [14],> 500 µM
same,IC95,Enterococcus faecalis [15],> 500 µM
same,IC95,Pseudomonas aeruginosa [16],> 500 µM
same,pIC50,Aspergillus fumigatus [17],< 3.30
same,IC80,Candida tropicalis [18],> 500 µM
same,MIC,Mycobacterium avium [19],250 µM
same,IC80,Pichia kudriavzevii [20],> 500 µM
same,IC95,Staphylococcus aureus [21],> 500 µM
same,MIC,[22],2 µM
same,IC80,Nakaseomyces glabratus [23],> 500 µM
same,pIC50,Aspergillus fumigatus [24],< 3.30
same,pIC50,[25],< 3.30
same,MIC,Mycobacterium kansasii [26],8 µM
same,MIC,Mycobacterium kansasii [27],2 µM
same,IC95,Staphylococcus aureus [28],> 500 µM
same,pIC50,Lichtheimia corymbifera [29],< 3.30
same,IC95,Klebsiella pneumoniae [30],> 500 µM
same,IC95,[31],> 500 µM
same,IC95,Staphylococcus aureus [32],> 500 µM
same,"viability at 48 h, 30 µM",[33],87%
same,pIC50,HeLa,< 4.52
same,MIC,Mycobacterium kansasii [34],2 µM
same,MIC,Mycobacterium kansasii [35],4 µM
same,MIC,[36],1 µM
same,IC95,Enterococcus faecalis [37],> 500 µM
same,IC80,Trichosporon asahii [38],> 500 µM
same,IC80,Candida albicans [39],> 500 µM
same,IC95,Pseudomonas aeruginosa [40],> 500 µM
same,IC95,Klebsiella pneumoniae [41],> 500 µM
same,MIC,Mycobacterium kansasii [42],4 µM
same,pIC50,[43],< 4.52
same,pIC50,Lichtheimia corymbifera [44],< 3.30
same,MIC,Mycobacterium kansasii [45],8 µM
same,MIC,Mycobacterium avium [46],250 µM
same,pIC50,[47],< 3.30
same,"viability at 48 h, 30 µM",[48],112%
same,IC80,Trichosporon asahii [49],> 500 µM
